Our source for the IC50 values is PubChem BioAssay AID540252 (Sanford-Burnham Center for Chemical Genomics, 2011).

Calls of active or inactive are those of the source. The rule behind the calls is not given here. Some results are limits rather than exact numbers.

For the assay, the target named is glucose-6-phosphate dehydrogenase-6-phosphogluconolactonase (Plasmodium falciparum 3D7). The assay can be described thus: PfG6PD enzyme inhibitors, direct NADPH readout, dose response, orthogonal assay, biochemical, end-point NADPH detection (AID 540252). Particulars: purified PfG6PD enzyme.
One may read the IC50 as the point on the concentration scale where inhibition reaches its midpoint. With `Oc1ccc(/C=N/N=C(c2ccccc2)c2ccccc2)c(O)c1O`, the IC50 was 67.4 µM.
`Cc1no[n+]([O-])c1COc1cccc(/C=N/Nc2nncn2N)c1`: the IC50 is > 80 µM (inactive).
Turning to `Cc1ccc(-c2nc(N3CCOCC3)s[n+]2-c2ccccc2)cc1`, the IC50 is > 80 µM (inactive).
In the case of `Cc1cc(C)c(S(=O)(=O)Nc2cc(SCC(=O)O)c(O)c3ccccc23)cc1C`, the IC50 was > 80 µM (inactive).
Turning to `CCOC(=O)Cc1csc(-n2sc3ccccc3c2=O)n1`, the IC50 is > 80 µM (inactive).
Take `Cc1cccc(NC2=C(NC(=O)c3ccccc3)C(=O)c3ccccc3C2=O)c1`: the IC50 was > 80 µM (inactive).
As for `Cc1ccc(/C=C/C(=O)NC2CCCCCCC2)o1`, the figure is > 80 µM (inactive); as for `Cn1sc2ccccc2c1=O`, 52.3 µM; as for `Cc1ccnc(-n2sc3ccccc3c2=O)n1`, > 80 µM (inactive).
For `O=C(CCc1ccc(O)c(O)c1)N/N=C/c1cc2c(cc1[N+](=O)[O-])OCO2`, the IC50 is > 80 µM (inactive).
`O=C1C=C(NCCc2cc(Br)c(O)c(Br)c2)C(=O)c2ncccc21`: the IC50 was > 80 µM (inactive).
As for `CCC(CO)[n+]1c(C)cc(/C=C2\Sc3ccccc3N2Cc2ccccc2)cc1C` (configuration not stated), the figure is > 80 µM (inactive); as for `O=C(CCl)NCCN1C(=O)S/C(=C\c2cccnc2)C1=O`, > 80 µM (inactive).
Turning to `CCOC(=O)C1CCCN(C(=O)Cn2sc3nc(C)cc(C)c3c2=O)C1` (configuration not stated), the IC50 is > 80 µM (inactive).
As for `[O-]/[N+](=C\c1ccco1)c1ccc(Cl)cc1`, the IC50 is > 80 µM (inactive).
In the case of `COc1ccc2nc3cc(Cl)ccc3c(Nc3ccc(O)c(CN4CCN(C)CC4)c3)c2c1`, the IC50 was > 80 µM (inactive).
As to `O=C(Cc1ccccc1)NCC(=O)OCC(=O)c1ccc([N+](=O)[O-])cc1`, the half-inhibitory concentration (IC50) is 64 µM.
Regarding `O=C1NC(=O)N(c2ccccc2)C(=O)/C1=C/c1ccc([N+](=O)[O-])s1`, the IC50 was > 80 µM (inactive).
In the case of `COc1cc(NCc2ccccc2O)c2ncccc2c1` it was > 80 µM (inactive); in that of `c1ccc(SSc2ccccn2)nc1`, 60.8 µM.
In the case of `Cc1ccc2nc3sc(C(=O)N4CCOCC4)c(N)c3cc2c1`, the IC50 is > 80 µM (inactive).
As for `O=C1C=CC(=O)N1CCCCCCCCCCN1C(=O)C=CC1=O`, the figure is > 80 µM (inactive); as for `c1ccc(-c2cn3c(n2)CCc2ccc4cccnc4c2-3)cc1`, > 80 µM (inactive).
In the case of `C[n+]1c(-c2ccccc2)cc2c(=Cc3ccc([N+](=O)[O-])cc3)c3ccccc3n21`, the IC50 was > 80 µM (inactive).
For the compound `CCOC(=O)c1cnc2ccc(C)cc2c1Sc1ccccc1C(=O)OC`, the IC50 was > 80 µM (inactive).
Turning to `COc1cc(CNc2ccc(N3CCCC3)cc2)ccc1OCc1ccccc1F`, the IC50 is > 80 µM (inactive).
As for `CC1(OC(=O)C2CCCC2)C(=O)C=C2C=C(c3ccsc3)N(CC3CC3)C=C2C1=O` (configuration not stated), the IC50 was > 80 µM (inactive).
Turning to `COc1ccc(N2CSC3=C(C#N)C(c4cc(OC)c(OC)cc4OC)CC(=O)N3C2)c(OC)c1` (configuration not stated), the IC50 is > 80 µM (inactive).
Turning to `CN1C(=O)C(N=Nc2ccc([N+](=O)[O-])cc2)SC1=S` (configuration not stated), the IC50 is > 80 µM (inactive).
In the case of `c1nc(SSc2ncnc3nc[nH]c23)c2[nH]cnc2n1`, the IC50 is 28.7 µM.
In the case of `O=c1c2ccccc2[se]n1-c1ccccc1`, the 50% inhibitory concentration (IC50) was 13.5 µM.
`Cc1ccc(NC(=O)c2cc(N3C(=O)C=CC3=O)ccc2N2CCOCC2)cc1`: the IC50 is > 80 µM (inactive).
On to `Cc1ccc(Nc2cc(C)c(O)c(C)c2)cc1`, for which the IC50 is > 80 µM (inactive).
On to `Cc1nnc(Sc2cc(NCCO)c([N+](=O)[O-])c3nonc23)s1`, for which the IC50 was 53.1 µM.
As to `Oc1cc(CNCc2ccccc2)c(O)cc1CNCc1ccccc1`, the IC50 is > 80 µM (inactive).
In the case of `O=C(Nc1ccc([N+](=O)[O-])cc1Cl)c1cc(Cl)ccc1O` it was > 80 µM (inactive).
Consider `CN1CCN(C(=S)c2ccc([N+](=O)[O-])cc2)CC1`, for which the half-inhibitory concentration (IC50) was 65.5 µM.
